Where a name gives a salt, the structure may show the parent alone. Read-outs that look alike come from different tables or passages of the source.
Assays:
[1] = molecular target: T1, wild type human RORγt LBD (Homo sapiens, UniProt P51449); assay: RORγt (LBD) Reporter Assay (GAL4-luciferase, HEK293T cells); type: cell-based; details: for inhibition at 6 µM: HEK-293T, read-out: RORγt (LBD) Reporter Assay, % inhibition @ 6 µM, 6 µM compound concentration
T1 construct: expressed in transfected cells; host or cells: HEK293T
T1 sequence (P51449 258-518): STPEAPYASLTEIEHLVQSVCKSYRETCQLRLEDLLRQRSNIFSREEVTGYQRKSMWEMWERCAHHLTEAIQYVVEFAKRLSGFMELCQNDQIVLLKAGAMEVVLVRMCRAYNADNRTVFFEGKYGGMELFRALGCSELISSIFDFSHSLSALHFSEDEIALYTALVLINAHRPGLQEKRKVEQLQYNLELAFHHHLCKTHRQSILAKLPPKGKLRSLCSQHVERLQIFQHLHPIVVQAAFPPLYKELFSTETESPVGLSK

[2] = molecular target: T2, wild type human RORγt ligand binding domain (RORyt LBD) (Homo sapiens, UniProt P51449); assay: RORγt ThermoFluor assay (thermal shift, binding affinity KD)
T2 construct: His-tag (N); TurboTEV protease cleavage site (ENLYFQG) (N); made in house; host or cells: E. coli (pHIS1, modified pET vector)
T2 sequence (P51449 258-518): T1 sequence (P51449 258-518)

[3] = HEK293T cells, value after the comma with ∼, > or < could not be included in the average

Structure (SMILES)	Kd [2] [nM]	further results
COc1nc2ccc(C(O)(c3ccc(C)nc3C)c3cnnn3C)cc2c(Cl)c1Cc1ccc(C)cc1 (single isomer, unassigned) [Example 20b, (4-Chloro-2-methoxy-3-(4-methylbenzyl)quinolin-6-yl)(2,6-dimethylpyridin-3-yl)(1-methyl-1H-1,2,3-triazol-5-yl)methanol]	390	IC50 [1, 3]: 1400 nM; inhibition at 6 µM [1]: 84%
COc1nc2ccc(C(O)(c3ccc(C)nc3C)c3cnnn3C)cc2c(Cl)c1Cc1ccc(S(C)(=O)=O)cc1 (single isomer, unassigned) [Example 117b, (4-Chloro-2-methoxy-3-(4-(methylsulfonyl)benzyl)quinolin-6-yl)(2,6-dimethylpyridin-3-yl)(1-methyl-1H-1,2,3-triazol-5-yl)methanol]	1300	IC50 ([1]; HEK293T cells): ~4000 nM; inhibition at 6 µM ([1]; HEK293T cells): 88%
COc1nc2ccc(C(O)(c3ccc(C)nc3C)c3cnc(C)n3C)cc2c(Cl)c1Cc1ccc(C(F)(F)F)nc1 (stereo not shown) [Example 42a, (4-Chloro-2-methoxy-3-((6-(trifluoromethyl)pyridin-3-yl)methyl)quinolin-6-yl)(1,2-dimethyl-1H-imidazol-5-yl)(2,6-dimethylpyridin-3-yl)methanol]	0.38	–
COc1nc2ccc(C(O)(c3c(C)noc3C)c3cnnn3C)cc2c(Cl)c1Cc1ccc(C(F)(F)F)cc1 (stereo not shown) [Example 93, (4-Chloro-2-methoxy-3-(4-(trifluoromethyl)benzyl)quinolin-6-yl)(3,5-dimethylisoxazol-4-yl)(1-methyl-1H-1,2,3-triazol-5-yl)methanol]	0.6	–
Cc1nc2ccc(C(O)(c3ccnc(C(F)(F)F)c3)c3cncn3C)cc2c(Cl)c1Cc1ccc(C(F)(F)F)cc1 (single isomer, unassigned) [Example 30b, (4-Chloro-2-methyl-3-(4-(trifluoromethyl)benzyl)quinolin-6-yl)(1-methyl-1H-imidazol-5-yl)(2-(trifluoromethyl)pyridin-4-yl)methanol]	300	–
COCCN(C)c1nc2ccc(C(O)(c3ccc(C(F)(F)F)nc3)c3cncn3C)cc2c(Cl)c1Cc1ccc(-n2cccn2)cc1 (stereo not shown) [Example 128, {4-Chloro-2-[(2-methoxyethyl)(methyl)amino]-3-[4-(1H-pyrazol-1-yl)benzyl]quinolin-6-yl}(1-methyl-1H-imidazol-5-yl)[6-(trifluoromethyl)pyridin-3-yl]methanol]	97	–
COc1nc2ccc(C(O)(c3cnnn3C)C3CN(C)C3)cc2c(Cl)c1Cc1ccc(C(F)(F)F)cc1 (single isomer, unassigned) [Example 90c, (4-Chloro-2-methoxy-3-(4-(trifluoromethyl)benzyl)quinolin-6-yl)(1-methyl-1H-1,2,3-triazol-5-yl)(1-methylazetidin-3-yl)methanol]	3.4	–
COc1nc2ccc(C(O)(c3ccc(C)nc3C)c3cnc(C)n3C)cc2c(Cl)c1Cc1ccc(C(F)(F)F)cc1 (single isomer, unassigned) [Example 57b, (4-Chloro-2-methoxy-3-(4-(trifluoromethyl)benzyl)quinolin-6-yl)(1,2-dimethyl-1H-imidazol-5-yl)(2,6-dimethylpyridin-3-yl)methanol]	180	–
CCc1nc2ccc(C(O)(c3cnc(C)n3C)C3CCOCC3)cc2c(Cl)c1Cc1ccc(C(F)(F)F)cc1 (single isomer, unassigned) [Example 34c, (4-Chloro-2-ethyl-3-(4-(trifluoromethyl)benzyl)quinolin-6-yl)(1,2-dimethyl-1H-imidazol-5-yl)(tetrahydro-2H-pyran-4-yl)methanol]	6.8	–
CCc1nc2ccc(C(O)(c3cnnn3C)C3CN(C(C)=O)C3)cc2c(C#N)c1Cc1ccc(C(F)(F)F)cc1 (single isomer, unassigned) [Example 36, 6-((1-Acetylazetidin-3-yl)(hydroxy)(1-methyl-1H-1,2,3-triazol-5-yl)methyl)-2-ethyl-3-(4-(trifluoromethyl)benzyl)quinoline-4-carbonitrile]	0.73	–
COc1nc2ccc(C(O)(C3CN(C(C)=O)C3)C3CN(C(C)=O)C3)cc2c(Cl)c1Cc1ccc(C(F)(F)F)cc1 [Example 3, 1,1'-(3,3'-((4-Chloro-2-methoxy-3-(4-(trifluoromethyl)benzyl)quinolin-6-yl)(hydroxy)methylene)bis(azetidine-3,1-diyl))diethanone]	46	–
COc1nc2ccc(C(O)(c3ccccn3)c3cncn3C)cc2c(Cl)c1Cc1cc2ccccc2s1 (single isomer, unassigned) [Example 59b, (3-(Benzo[b]thiophen-2-ylmethyl)-4-chloro-2-methoxyquinolin-6-yl)(1-methyl-1H-imidazol-5-yl)(pyridin-2-yl)methanol]	34	–
COc1nc2ccc(C(O)(c3cnnn3C)C3CN(C)C3)cc2c(Cl)c1Cc1ccc(C(F)(F)F)cc1 (racemic) [Example 90a, (4-Chloro-2-methoxy-3-(4-(trifluoromethyl)benzyl)quinolin-6-yl)(1-methyl-1H-1,2,3-triazol-5-yl)(1-methylazetidin-3-yl)methanol]	5	–
COc1nc2ccc(C(O)(c3ccccn3)c3cncn3C)cc2c(Cl)c1Cc1ccc(S(C)(=O)=O)cc1 (single isomer, unassigned) [Example 58c, (4-Chloro-2-methoxy-3-(4-(methylsulfonyl)benzyl)quinolin-6-yl)(1-methyl-1H-imidazol-5-yl)(pyridin-2-yl)methanol]	370	–
COc1nc2ccc(C(O)(c3ccc(C)nc3C)c3cnc(C)n3C)cc2c(Cl)c1Cc1ccc(C(F)(F)F)nc1 (single isomer, unassigned) [Example 42b, (4-Chloro-2-methoxy-3-((6-(trifluoromethyl)pyridin-3-yl)methyl)quinolin-6-yl)(1,2-dimethyl-1H-imidazol-5-yl)(2,6-dimethylpyridin-3-yl)methanol]	970	–
COc1nc2ccc(C(O)(c3ccc(C(F)(F)F)nc3)c3cnnn3C)cc2c(Cl)c1Cc1ccc(C(F)(F)F)cc1 (single isomer, unassigned) [Example 75b, (4-Chloro-2-methoxy-3-(4-(trifluoromethyl)benzyl)quinolin-6-yl)(1-methyl-1H-1,2,3-triazol-5-yl)(6-(trifluoromethyl)pyridin-3-yl)methanol]	6.8	–
CC(=O)N1CC(C(O)(c2ccc3nc(C)c(Cc4ccc(C(F)(F)F)cc4)c(Cl)c3c2)c2cnnn2C)C1 (single isomer, unassigned) [Example 32b, 1-(3-((4-Chloro-2-methyl-3-(4-(trifluoromethyl)benzyl)quinolin-6-yl)(hydroxy)(1-methyl-1H-1,2,3-triazol-5-yl)methyl)azetidin-1-yl)ethanone]	0.86	–

Now those with a lower Kd [2], led by results:

Kd [2] [nM]	Structure (SMILES)	further results
0.17	COc1nc2ccc(C(O)(c3cnc(C)n3C)c3cnc(C)n3C)cc2c(C#N)c1Cc1ccccc1C(F)(F)F [Example 10, 6-(bis(1,2-Dimethyl-1H-imidazol-5-yl)(hydroxy)methyl)-2-methoxy-3-(2-(trifluoromethyl)benzyl)quinoline-4-carbonitrile•TFA]	–
0.14	CCc1nc2ccc(C(O)(c3ccc(C)nc3C)c3cnnn3C)cc2c(Cl)c1Cc1ccc(C(F)(F)F)cc1 (stereo not shown) [Example 23a, (4-Chloro-2-ethyl-3-(4-(trifluoromethyl)benzyl)quinolin-6-yl)(2,6-dimethylpyridin-3-yl)(1-methyl-1H-1,2,3-triazol-5-yl)methanol]	IC50 [1, 3]: 18 nM; inhibition at 6 µM [1]: 99%
0.12	Cc1ccc(C(O)(c2ccc3nc(C)c(Cc4ccc(C(F)(F)F)cc4)c(Cl)c3c2)c2cnnn2C)c(C)n1 (single isomer, unassigned) [Example 28c, (4-Chloro-2-methyl-3-(4-(trifluoromethyl)benzyl)quinolin-6-yl)(2,6-dimethylpyridin-3-yl)(1-methyl-1H-1,2,3-triazol-5-yl)methanol]	–
0.08	CCc1nc2ccc(C(O)(c3cnnn3C)C3CCOCC3)cc2c(Cl)c1Cc1ccc(C(F)(F)F)cc1 (single isomer, unassigned) [Example 33b, (4-Chloro-2-ethyl-3-(4-(trifluoromethyl)benzyl)quinolin-6-yl)(1-methyl-1H-1,2,3-triazol-5-yl)(tetrahydro-2H-pyran-4-yl)methanol]	–
0.06	COc1nc2ccc(C(O)(c3cnc(C)n3C)C3CCOCC3)cc2c(Cl)c1Cc1ccc(C(F)(F)F)cc1 (single isomer, unassigned) [Example 86c, (4-Chloro-2-methoxy-3-(4-(trifluoromethyl)benzyl)quinolin-6-yl)(1,2-dimethyl-1H-imidazol-5-yl)(tetrahydro-2H-pyran-4-yl)methanol]	–
0.06	Cc1nc2ccc(C(O)(c3cnnn3C)c3cnc(C)n3C)cc2c(Cl)c1Cc1ccc(C(F)(F)F)cc1 (stereo not shown) [Example 29a, (4-Chloro-2-methyl-3-(4-(trifluoromethyl)benzyl)quinolin-6-yl)(1,2-dimethyl-1H-imidazol-5-yl)(1-methyl-1H-1,2,3-triazol-5-yl)methanol]	–
0.05	CCc1nc2ccc(C(O)(c3cnnn3C)C3CCOCC3)cc2c(Cl)c1Cc1ccc(C(F)(F)F)cc1 (stereo not shown) [Example 33a, (4-Chloro-2-ethyl-3-(4-(trifluoromethyl)benzyl)quinolin-6-yl)(1-methyl-1H-1,2,3-triazol-5-yl)(tetrahydro-2H-pyran-4-yl)methanol]	–
0.013	COc1nc2ccc(C(O)(c3cnc(C)n3C)c3cnc(C)n3C)cc2c(C#N)c1Cc1ccc(C(F)(F)F)cc1 [Example 11, 6-(bis(1,2-Dimethyl-1H-imidazol-5-yl)(hydroxy)methyl)-2-methoxy-3-(4-(trifluoromethyl)benzyl)quinoline-4-carbonitrile]	–
